# In patent US7608718B2, “4,5-dihydro-1H-pyrazole derivatives having potent CB1-antagonistic activity” (Solvay Pharmaceuticals B.V., priority 2001, dated 2009):
row,melting point,SMILES
1,223 to 235 °C,"CNC(=NS(=O)(=O)N1CCOCC1)N1CC(c2c(F)cccc2F)C(c2ccc(Cl)cc2)=N1 (centres unmarked) [Example 79, 3-(4-Chlorophenyl)-4-(2,6-difluorophenyl)-N-methyl-N′-((morpholin-4-yl)sulfonyl)-4,5-dihydro-1H-pyrazole-1-carboxamidine]"
2,214 to 216 °C,"CNC(=NS(=O)(=O)N(C)C)N1CC(c2c(F)cccc2F)C(c2ccc(Cl)cc2)=N1 (centres unmarked) [Example 80, 3-(4-Chlorophenyl)-4-(2,6-difluorophenyl)-N′-((dimethylamino)sulfonyl)-N-methyl-4,5-dihydro-1H-pyrazole-1-carboxamidine]"
3,260 to 263 °C,"CNC(=NS(=O)(=O)N1CCCCC1)N1CC(c2c(F)cccc2F)C(c2ccc(Cl)cc2)=N1 (centres unmarked) [Example 81, 3-(4-Chlorophenyl)-4-(2,6-difluorophenyl)-N-methyl-N′-((piperidin-1-yl)sulfonyl)-4,5-dihydro-1H-pyrazole-1-carboxamidine]"
4,170 °C,"CNC(=NS(=O)(=O)N1CCCCC1)N1CC(c2cccc(F)c2)C(c2ccc(Cl)cc2)=N1 (centres unmarked) [Example 82, 3-(4-Chlorophenyl)-4-(3-fluorophenyl)-N-methyl-N′-((piperidin-1-yl)sulfonyl)-4,5-dihydro-1H-pyrazole-1-carboxamidine]"
5,223 to 225 °C,"CNC(=NS(=O)(=O)N1CCCCC1)N1CC(c2ccccc2F)C(c2ccc(Cl)cc2)=N1 (centres unmarked) [Example 83, 3-(4-Chlorophenyl)-4-(2-fluorophenyl)-N-methyl-N′-((piperidin-1-yl)sulfonyl)-4,5-dihydro-1H-pyrazole-1-carboxamidine]"
6,173 to 175 °C,"CNC(=NS(=O)(=O)N(C)C)N1CC(c2ccccc2F)C(c2ccc(Cl)cc2)=N1 (centres unmarked) [Example 84, 3-(4-Chlorophenyl)-N′-((dimethylamino)sulfonyl)-4-(2-fluorophenyl)-N-methyl-4,5-dihydro-1H-pyrazole-1-carboxamidine]"
7,110 °C,"CNC(=NS(=O)(=O)N(C)C)N1CC(c2cccc(F)c2)C(c2ccc(Cl)cc2)=N1 (centres unmarked) [Example 85, 3-(4-Chlorophenyl)-N′-((dimethylamino)sulfonyl)-4-(3-fluorophenyl)-N-methyl-4,5-dihydro-1H-pyrazole-1-carboxamidine]"
8,165 to 168 °C,"CNC(=NS(=O)(=O)N1CCOCC1)N1CC(c2ccccc2F)C(c2ccc(Cl)cc2)=N1 (centres unmarked) [Example 86, 3-(4-Chlorophenyl)-4-(2-fluorophenyl)-N-methyl-N′-((morpholin-4-yl)sulfonyl)-4,5-dihydro-1H-pyrazole-1-carboxamidine]"
9,80 °C,"CNC(=NS(=O)(=O)N1CCC(O)CC1)N1CC(c2ccccc2)C(c2ccc(Cl)cc2)=N1 (centres unmarked) [Example 88, 3-(4-Chlorophenyl)-N′-((4-hydroxypiperidin-1-yl)sulfonyl)-N-methyl-4-phenyl-4,5-dihydro-1H-pyrazole-1-carboxamidine]"
10,158 °C,"CCN(CCN(C)C)S(=O)(=O)N=C(SC)N1CC(c2ccccc2)C(c2ccc(Cl)cc2)=N1 (centres unmarked) [Example 95, 3-(4-Chlorophenyl)-N-(((2-(dimethylamino)ethyl)ethylamino)sulfonyl)-4-phenyl-4,5-dihydro-1H-pyrazole-1-carboximidothioic acid methyl ester]"
11,245 °C,"CSC(=NS(=O)(=O)N1CCC(N2CCCCC2)CC1)N1CC(c2ccccc2)C(c2ccc(Cl)cc2)=N1 (centres unmarked) [Example 97, 3-(4-Chlorophenyl)-N-(([1,4′]bipiperidin-1′-yl)sulfonyl)-4-phenyl-4,5-dihydro-1H-pyrazole-1-carboximidothioic acid methyl ester]"
